In patent publication US9034381B2, “Process to control particle size” (Alphapharm Pty Ltd, priority 2005, dated 2015):
Values joined by “and” are separate entries in the source; they are usually repeats but may differ in a detail not shown here. Equal values may be shown once.

Experiment: Particle size measurement of milled material (Malvern Mastersizer S laser diffraction)
Type: physicochemical
[1] = Example 1 (comparative), feedstock, individual samples
[2] = Example 1 (comparative), feedstock
[3] = Example 1 (comparative), micronised in a single process, composite
[4] = Example 1 (comparative), micronised in a single process, individual samples
[5] = Example 2 (comparative), feedstock, individual samples
[6] = Example 2 (comparative), feedstock
[7] = Example 2 (comparative), micronised in a single process, composite
[8] = Example 2 (comparative), micronised in a single process, individual samples
[9] = Example 3 (comparative), feedstock
[10] = Example 3 (comparative), micronised in a single process, composite
[11] = Example 3 (comparative), micronised in a single process, individual samples
[12] = Example 4, micronised first pass
[13] = Example 4, micronised second pass

## NC(=O)N1c2ccccc2CC(=O)c2ccccc21 [Oxcarbazepine]
[1]
  D[v, 0.5]: 47.04 μm and 47.77 μm
  D[v, 0.9]: 98.61 μm and 101.96 μm
[2]
  D[v, 0.5] mean: 47.41 μm
  D[v, 0.9] mean: 100.29 μm
[3]
  D[v, 0.5] composite (average): 15.27 μm
  D[v, 0.9] composite (average): 53.30 μm
[4]
  D[v, 0.5]: 15.02 μm and 15.18 μm and 15.16 μm and 25.41 μm and 10.36 μm
  D[v, 0.9]: 52.08 μm and 51.71 μm and 51.94 μm and 67.97 μm and 44.13 μm
[5]
  D[v, 0.5]: 47.04 μm and 47.77 μm
  D[v, 0.9]: 98.61 μm and 101.96 μm
[6]
  D[v, 0.5] mean: 47.41 μm
  D[v, 0.9] mean: 100.29 μm
[7]
  D[v, 0.5] composite (average): 5.95 μm
  D[v, 0.9] composite (average): 30.47 μm
[8]
  D[v, 0.5]: 3.84 μm and 6.09 μm and 2.15 μm and 4.91 μm
  D[v, 0.9]: 19.56 μm and 31.90 μm and 11.56 μm and 27.25 μm
[9]
  D[v, 0.5]: 73.33 μm
  D[v, 0.9]: 323.50 μm
[10]
  D[v, 0.5] composite: 13.79 μm
  D[v, 0.9] composite (average): 33.14 μm
[11]
  D[v, 0.5]: 7.50 μm and 19.51 μm and 15.09 μm and 15.64 μm
  D[v, 0.9]: 16.47 μm and 44.34 μm and 34.47 μm and 35.78 μm
Example 4, initial feedstock
  D[v, 0.5] mean: 65.06 μm
  D[v, 0.9] mean: 177.81 μm
[12]
  D[v, 0.5] mean: 33.89 μm
  D[v, 0.9] mean: 78.22 μm
[13]
  D[v, 0.5] mean: 16.30 μm
  D[v, 0.9] mean: 37.22 μm
